This note sets out measurements from US8992932B2, “Binder-drug conjugates (ADCs) and use thereof” (Seattle Genetics, Inc., priority 2011, dated 2015).

Structures are written as SMILES. Several values for one entry are separate records, joined by “and”; a condition that tells them apart may be missing. Equal entries are not always repeated. Structures can show the parent of a compound that is named as a salt. Square brackets hold non-standard residues; d marks the D form. Peptide text beside a SMILES is read from it. * marks the point of attachment. X2 = CC(C)[C@@H](C(=O)*)N(C)CCCCCCN1C(=O)CC(SC[C@H](N)C(=O)O)C1=O; X3 = CC(C)[C@@H](C(=O)*)N(C)CCOCCOCCOCCC(=O)NCCCC[C@H](N)C(=O)O; X1 = CC(C)[C@@H](C(=O)*)N(C)CCCCCC(=O)NCCCC[C@H](N)C(=O)O; Dolaproine = CO[C@@H]([C@@H]1CCCN1)[C@@H](C)C(=O)O; Dil = CC[C@H](C)[C@H](NC)[C@@H](CC(=O)O)OC; Oxazinan2yl(1,2) = C1CCN(*)OC1; NMeV = CN[C@H](C(=O)O)C(C)C

The test system of one data set is Caco-2 cells. Briefly: Cell permeability flux assay using Caco-2 cells. The settings on record: basal to apical, 2 hours. It is filed as in vitro ADME. Here is the method: The cell permeability of a substance can be investigated by means of in vitro testing in a flux assay using Caco-2 cells [M. D. Troutman and D R Thakker, Pharm. Res. 20 (8), 1210-1224 (2003)]. For this purpose, the cells were cultured for 15-16 days on 24-well filter plates. For the determination of permeation, the respective working example was applied in a HEPES buffer to the cells either apically (A) or basally (B) and incubated for 2 hours. After 0 hours and after 2 hours, samples were taken from the cis and trans compartments. The samples were separated by HPLC (Agilent 1200, Boblingen, Germany) using reverse phase columns. The HPLC system was coupled via a Turbo Ion Spray Interface to a Triple Quadropol mass spectrometer API 4000 (Applied Biosystems Applera, Darmstadt, Germany). The permeability was evaluated on the basis of a Papp value, which was calculated using the formula published by Schwab et al. [D. Schwab et al., J. Med. Chem. 46, 1716-1725 (2003)].

The subject of the next data set is tubulin. The experiment in a line: Fluorescence-based microtubule polymerisation assay (DAPI). In kind it is biochemical. How it is done: Tubulin polymerization was investigated using the “Fluorescence-based Microtubule Polymerisation Assay Kit” from Cytoskeleton (Denver, Colo., USA; order number: BK011). With this assay, GTP is added to unpolymerized tubulin, allowing polymerization to take place spontaneously. The assay is based on the binding of the fluorophore 4′,6-diamidino-2-phenylindole (DAPI) to tubulin. Free and bound DAPI can be differentiated on the basis of different emission spectra.
[…] In addition to the buffer control, paclitaxel, with a polymerization-increasing effect, and vinblastin, with a polymerization inhibiting effect, were run additionally as assay controls. Measurement was carried out using 96-well plates with a half base area. The kinetics of the tubulin polymerization were monitored in a Fluorimeter at 37° C. for 1 hour. The excitation wavelength was 355 nm, and emission was monitored at 460 nm. For the region of linear increase within the first 10 minutes, a calculation was made of the change in fluorescence per minute (AF/min), which represents the polymerization rate of the microtubuli. The potency of the test substances was quantified on the basis of their respective reduction of the polymerization rate.

Take `CC[C@H](C)[C@@H]([C@@H](CC(=O)N1CCC[C@H]1[C@H](OC)[C@@H](C)C(=O)N[C@@H](Cc1c[nH]c2ccccc12)C(=O)N1CCCCO1)OC)N(C)C(=O)[C@@H](NC(=O)[C@H](C(C)C)N(C)CCCCCC(=O)NCCCC[C@H](N)C(=O)O)C(C)C` [Example 115, N-(6-{[(55)-5-Amino-5-carboxypentyl]amino}-6-oxohexyl)-N-methyl-L-valyl-N-[(3R,4S,5S)-1-{(2S)-2-[(1R,2R)-3-{[(2S)-3-(1H-indol-3-yl)-1-(1,2-oxazinan-2-yl)-1-oxopropan-2-yl]amino}-1-methoxy-2-methyl-3-oxopropyl]pyrrolidin-1-yl}-3-methoxy-5-methyl-1-oxoheptan-4-yl]-N-methyl-L-valinamide trifluoroacetate] (X1-V[Dil][Dolaproine]W-{Oxazinan2yl(1,2)}): the “Papp (B-A)” value with Caco-2 cells amounted to 0.2 ×10⁻⁶ cm/s.

As to `CC[C@H](C)[C@@H]([C@@H](CC(=O)N1CCC[C@H]1[C@H](OC)[C@@H](C)C(=O)N[C@@H](Cc1c[nH]c2ccccc12)C(N)=O)OC)N(C)C(=O)[C@@H](NC(=O)[C@H](C(C)C)N(C)CCCCCCN1C(=O)CC(SC[C@H](N)C(=O)O)C1=O)C(C)C` (stereo partly drawn) [Example 74, N-[6-(3-{[(2R)-2-Amino-2-carboxyethyl]sulphanyl}-2,5-dioxopyrrolidin-1-yl)hexyl]-N-methyl-L-valyl-N-[(3R,4S,5S)-1-{(2S)-2-[(1R,2R)-3-{[(2S)-1-amino-3-(1H-indol-3-yl)-1-oxopropan-2-yl]amino}-1-methoxy-2-methyl-3-oxopropyl]pyrrolidin-1-yl}-3-methoxy-5-methyl-1-oxoheptan-4-yl]-N-methyl-L-valinamide] (X2-V[Dil][Dolaproine]W-NH2), the “Papp (B-A)” value in the data set on Caco-2 cells amounted to 0.5 ×10⁻⁶ cm/s.

On to `CC[C@H](C)[C@@H]([C@@H](CC(=O)N1CCC[C@H]1[C@H](OC)[C@@H](C)C(=O)N[C@@H](Cc1c[nH]c2ccccc12)C(=O)O)OC)N(C)C(=O)[C@@H](NC(=O)[C@H](C(C)C)N(C)CCCCCC(=O)NCCCC[C@H](N)C(=O)O)C(C)C` [Example 116, N-(6-{[(55)-5-Amino-5-carboxypentyl]amino}-6-oxohexyl)-N-methyl-L-valyl-N-[(3R,4S,5S)-1-{(2S)-2-[(1R,2R)-3-{[(1S)-1-carboxy-2-(1H-indol-3-yl)ethyl]amino}-1-methoxy-2-methyl-3-oxopropyl]pyrrolidin-1-yl}-3-methoxy-5-methyl-1-oxoheptan-4-yl]-N-methyl-L-valinamide] (X1-V[Dil][Dolaproine]W-OH), for which, in the data set with Caco-2 cells, the “Papp (B-A)” value amounted to 0.1 ×10⁻⁶ cm/s.

On to `CC[C@H](C)[C@@H]([C@@H](CC(=O)N1CCC[C@H]1[C@H](OC)[C@@H](C)C(=O)N[C@@H](Cc1ccc(O)cc1)C(=O)N1CCCCO1)OC)N(C)C(=O)[C@@H](NC(=O)[C@H](C(C)C)N(C)CCCCCC(=O)NCCCC[C@H](N)C(=O)O)C(C)C` [Example 127, N-(6-{[(55)-5-Amino-5-carboxypentyl]amino}-6-oxohexyl)-N-methyl-L-valyl-N-[(3R,4S,5S)-1-{(2S)-2-[(1R,2R)-3-{[(2S)-3-(4-hydroxyphenyl)-1-(1,2-oxazinan-2-yl)-1-oxopropan-2-yl]amino}-1-methoxy-2-methyl-3-oxopropyl]pyrrolidin-1-yl}-3-methoxy-5-methyl-1-oxoheptan-4-yl]-N-methyl-L-valinamide trifluoroacetate] (X1-V[Dil][Dolaproine]Y-{Oxazinan2yl(1,2)}), for which the “Papp (B-A)” value with Caco-2 cells turned out to be 0.15 ×10⁻⁶ cm/s.

With `CC[C@H](C)[C@@H]([C@@H](CC(=O)N1CCC[C@H]1[C@H](OC)[C@@H](C)C(=O)N[C@@H](Cc1c[nH]c2ccccc12)C(N)=O)OC)N(C)C(=O)[C@@H](NC(=O)[C@H](C(C)C)N(C)CCCC(=O)NNC(=O)CCCCCN1C(=O)CC(SC[C@H](N)C(=O)O)C1=O)C(C)C` (stereo partly drawn) [Example 71, N-(4-{2-[6-(3-{[(2R)-2-Amino-2-carboxyethyl]sulphanyl}-2,5-dioxopyrrolidin-1-yl)hexanoyl]hydrazino}-4-oxobutyl)-N-methyl-L-valyl-N-[(3R,4S,5S)-1-{(2S)-2-[(1R,2R)-3-{[(2S)-1-amino-3-(1H-indol-3-yl)-1-oxopropan-2-yl]amino}-1-methoxy-2-methyl-3-oxopropyl]pyrrolidin-1-yl}-3-methoxy-5-methyl-1-oxoheptan-4-yl]-N-methyl-L-valinamide], in the data set with Caco-2 cells, the “Papp (B-A)” value turned out to be 0.2 ×10⁻⁶ cm/s.

With `CC[C@H](C)[C@@H]([C@@H](CC(=O)N1CCC[C@H]1[C@H](OC)[C@@H](C)C(=O)N[C@@H](Cc1ccccc1)C(=O)O)OC)N(C)C(=O)[C@@H](NC(=O)[C@@H](NC)C(C)C)C(C)C` [MMAF, monomethylauristatin F, reference compound] (H-[NMeV]V[Dil][Dolaproine]F-OH), the “Effect on tubulin polymerization (in words)” value in the data set on tubulin is on record as “inhibit tubulin polymerization as a function of their concentration”.

Regarding `CC[C@H](C)[C@@H]([C@@H](CC(=O)N1CCC[C@H]1[C@H](OC)[C@@H](C)C(=O)N[C@@H](Cc1c[nH]c2ccccc12)C(=O)NCc1ccccc1)OC)N(C)C(=O)[C@@H](NC(=O)[C@H](C(C)C)N(C)CCCC(=O)NNC(=O)CCCCCN1C(=O)CC(SC[C@H](N)C(=O)O)C1=O)C(C)C` (stereo partly drawn) [Example 77, N-(4-{2-[6-(3-{[(2R)-2-Amino-2-carboxyethyl]sulphanyl}-2,5-dioxopyrrolidin-1-yl)hexanoyl]hydrazino}-4-oxobutyl)-N-methyl-L-valyl-N-[(3R,4S,5S)-1-{(2S)-2-[(1R,2R)-3-{[(2S)-1-(benzylamino)-3-(1H-indol-3-yl)-1-oxopropan-2-yl]amino}-1-methoxy-2-methyl-3-oxopropyl]pyrrolidin-1-yl}-3-methoxy-5-methyl-1-oxoheptan-4-yl]-N-methyl-L-valinamide], the “Papp (B-A)” value in the data set on Caco-2 cells came to 0.7 ×10⁻⁶ cm/s.

Take `CC[C@H](C)[C@@H]([C@@H](CC(=O)N1CCC[C@H]1[C@H](OC)[C@@H](C)C(=O)N[C@@]1(C(=O)N2CCCCO2)C[C@@H]1c1ccccc1)OC)N(C)C(=O)[C@@H](NC(=O)[C@H](C(C)C)N(C)CCCC(=O)NNC(=O)CCCCCN1C(=O)CC(SC[C@H](N)C(=O)O)C1=O)C(C)C` (stereo partly drawn) [Example 73, N-(4-{2-[6-(3-{[(2R)-2-Amino-2-carboxyethyl]sulphanyl}-2,5-dioxopyrrolidin-1-yl)hexanoyl]hydrazino}-4-oxobutyl)-N-methyl-L-valyl-N-[(3R,4S,5S)-3-methoxy-1-{(2S)-2-[(1R,2R)-1-methoxy-2-methyl-3-{[(1S,2R)-1-(1,2-oxazinan-2-ylcarbonyl)-2-phenylcyclopropyl]amino}-3-oxopropyl]pyrrolidin-1-yl}-5-methyl-1-oxoheptan-4-yl]-N-methyl-L-valinamide]: the “Papp (B-A)” value with Caco-2 cells worked out at 0.25 ×10⁻⁶ cm/s.

`CC[C@H](C)[C@@H]([C@@H](CC(=O)N1CCC[C@H]1[C@H](OC)[C@@H](C)C(=O)N[C@@H](Cc1c[nH]c2ccccc12)C(=O)O)OC)N(C)C(=O)[C@@H](NC(=O)[C@H](C(C)C)N(C)CCCC(=O)NNC(=O)CCCCCN1C(=O)CC(SC[C@H](N)C(=O)O)C1=O)C(C)C` (stereo partly drawn) [Example 72, N-(4-{2-[6-(3-{[(2R)-2-Amino-2-carboxyethyl]sulphanyl}-2,5-dioxopyrrolidin-1-yl)hexanoyl]hydrazino}-4-oxobutyl)-N-methyl-L-valyl-N-[(3R,4S,5S)-1-{(2S)-2-[(1R,2R)-3-{[(1S)-1-carboxy-2-(1H-indol-3-yl)ethyl]amino}-1-methoxy-2-methyl-3-oxopropyl]pyrrolidin-1-yl}-3-methoxy-5-methyl-1-oxoheptan-4-yl]-N-methyl-L-valinamide]: the “Papp (B-A)” value in the data set with Caco-2 cells was found to be 0.16 ×10⁻⁶ cm/s.

Consider `CC[C@H](C)[C@@H]([C@@H](CC(=O)N1CCC[C@H]1[C@H](OC)[C@@H](C)C(=O)N[C@@H](Cc1c[nH]c2ccccc12)C(=O)N1CCCCO1)OC)N(C)C(=O)[C@@H](NC(=O)[C@H](C(C)C)N(C)CCOCCOCCOCCC(=O)NCCCC[C@H](N)C(=O)O)C(C)C` [Example 117, N-[(18S)-18-Amino-18-carboxy-12-oxo-3,6,9-trioxa-13-azaoctadec-1-yl]-N-methyl-L-valyl-N-[(3R,4S,5S)-1-{(2S)-2-[(1R,2R)-3-{[(2S)-3-(1H-indol-3-yl)-1-(1,2-oxazinan-2-yl)-1-oxopropan-2-yl]amino}-1-methoxy-2-methyl-3-oxopropyl]pyrrolidin-1-yl}-3-methoxy-5-methyl-1-oxoheptan-4-yl]-N-methyl-L-valinamide trifluoroacetate] (X3-V[Dil][Dolaproine]W-{Oxazinan2yl(1,2)}), for which the “Tubulin polymerization in the presence of toxophore in [%]. Tubulin polymerization rate at 1 μM MMAF set at 100%” value in the data set on tubulin (toxophore 1 μM, trifluoroacetate) was 60% and 78%.
